Laboratory results: PubChem BioAssay AID206 (DTP/NCI, 2004)
“And” between values parts separate entries of the source, which are not always exact repeats. Equal entries are not always repeated. Records with an inconclusive call do not appear.

Tested on: nude mice, HT29 intrarenal xenograft, tumor weight T/C
Experiment: NCI In Vivo Anticancer Drug Screen. Data for tumor model HT29;CX-1 Human Adenocarcinoma (MER+) (intrarenal inoculation) in NU/NU Swiss (nude) mice
Conditions: endpoint: mean tumor weight change, higher = larger tumour
In short: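 Endpoint measured as tumor size or survival; ratio reported is treated group over vehicle controls.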

[1] = dose: 150.0 mg/kg/injection, schedule: Q04DX004 (sc), vehicle: Klucel (hydroxypropylcellulose) (HPC)
[2] = dose: 300.0 mg/kg/injection, schedule: Q04DX004 (sc), vehicle: Klucel (hydroxypropylcellulose) (HPC)
[3] = dose: 600.0 mg/kg/injection, schedule: Q04DX004 (sc), vehicle: Klucel (hydroxypropylcellulose) (HPC)
[4] = dose: 50.0 mg/kg/injection, schedule: Q04DX004 (sc), vehicle: saline with Tween-80
[5] = dose: 200.0 mg/kg/injection, schedule: Q04DX004 (sc), vehicle: saline with Tween-80
[6] = dose: 7.5 mg/kg/injection, schedule: Q04DX004 (sc), vehicle: water
[7] = dose: 15.0 mg/kg/injection, schedule: Q04DX004 (sc), vehicle: water
[8] = dose: 30.0 mg/kg/injection, schedule: Q04DX004 (sc), vehicle: water

COC1=C(OC)C(=O)C(C/C=C(\C)CC/C=C(\C)CC/C=C(\C)CC/C=C(\C)CC/C=C(\C)CC/C=C(\C)CC/C=C(\C)CC/C=C(\C)CC/C=C(\C)CCC=C(C)C)=C(C)C1=O
T/C (dose: 100.0 mg/kg/injection, schedule: Q01DX010 (sc), vehicle: saline with Tween-80): 113 % of control | T/C (dose: 200.0 mg/kg/injection, schedule: Q01DX010 (sc), vehicle: saline with Tween-80): 98 % of control | T/C (dose: 400.0 mg/kg/injection, schedule: Q01DX010 (sc), vehicle: saline with Tween-80): 105 % of control | T/C (dose: 800.0 mg/kg/injection, schedule: Q01DX010 (sc), vehicle: saline with Tween-80): 46 % of control

S=c1nc[nH]c2nc[nH]c12
T/C (dose: 12.5 mg/kg/injection, schedule: Q01DX010 (sc), vehicle: Klucel (hydroxypropylcellulose) (HPC)): 200 % of control | T/C (dose: 25.0 mg/kg/injection, schedule: Q01DX010 (sc), vehicle: Klucel (hydroxypropylcellulose) (HPC)): 81 % of control

CCN(Cc1ccc(Cl)c(Cl)c1)c1ccc2nc(N)nc(N)c2c1C
T/C (dose: 9.38 mg/kg/injection, schedule: Q04DX004 (sc), vehicle: distilled water + Tween-80): 44 % of control | T/C (dose: 18.75 mg/kg/injection, schedule: Q04DX004 (sc), vehicle: distilled water + Tween-80): 54 % of control | T/C (dose: 37.5 mg/kg/injection, schedule: Q04DX004 (sc), vehicle: distilled water + Tween-80): 93 % of control | T/C (dose: 75.0 mg/kg/injection, schedule: Q04DX004 (sc), vehicle: distilled water + Tween-80): 47 % of control

O=c1n[n+]([O-])ccn1C1OC(CO)C(O)C1O (stereo not drawn)
T/C (dose: 250.0 mg/kg/injection, schedule: Q04DX004 (sc), vehicle: suspension in saline): 31 % of control | T/C (dose: 500.0 mg/kg/injection, schedule: Q04DX004 (sc), vehicle: suspension in saline): 25 % of control | T/C (dose: 1000.0 mg/kg/injection, schedule: Q04DX004 (sc), vehicle: suspension in saline): 27 % of control

CC(=O)c1c(O)c(C)c(O)c2c1OC1=CC(=O)C(C(C)=O)C(=O)C12C (stereo not drawn)
T/C (dose: 300.0 mg/kg/injection, schedule: Q04DX004 (sc), vehicle: sodium bicarbonate): 104 % of control | T/C (dose: 600.0 mg/kg/injection, schedule: Q04DX004 (sc), vehicle: sodium bicarbonate): 91 % of control | T/C (dose: 800.0 mg/kg/injection, schedule: Q01DX010 (sc), vehicle: sodium bicarbonate): 3 % of control and 9 % of control

O=[N+]([O-])O.[Ga]
T/C (dose: 50.0 mg/kg/injection, schedule: Q04DX004 (sc), vehicle: saline): 99 % of control | T/C (dose: 100.0 mg/kg/injection, schedule: Q04DX004 (sc), vehicle: saline): 66 % of control | T/C (dose: 200.0 mg/kg/injection, schedule: Q04DX004 (sc), vehicle: saline): 80 % of control | T/C (dose: 400.0 mg/kg/injection, schedule: Q04DX004 (sc), vehicle: saline): 103 % of control

O=C1N[C@@H]([C@H]2CC[C@H](Cl)CN2)C(=O)N[C@H]1[C@H]1CC[C@H](Cl)CN1
T/C (dose: 0.16 mg/kg/injection, schedule: Q01DX010 (sc), vehicle: water): 65 % of control and 70 % of control and 74 % of control | T/C (dose: 0.31 mg/kg/injection, schedule: Q01DX010 (sc), vehicle: water): 20 % of control

CCS/C(SC)=C(/c1ccccc1)[P+](c1ccccc1)(c1ccccc1)c1ccccc1
T/C (dose: 18.75 mg/kg/injection, schedule: Q04DX004 (sc), vehicle: Klucel (hydroxypropylcellulose) (HPC)): 93 % of control

C[N+](C)(C)c1cc2c(nn1)Nc1ccccc1S2
T/C (dose: 50.0 mg/kg/injection, schedule: Q01DX010 (sc), vehicle: Klucel (hydroxypropylcellulose) (HPC)): 25 % of control | T/C (dose: 100.0 mg/kg/injection, schedule: Q01DX010 (sc), vehicle: Klucel (hydroxypropylcellulose) (HPC)): 85 % of control

CC12CC(C(=O)O)C3(O)CC(C)(C1)CC(C)(C2)C3 (stereo not drawn) (tested in a mixture with another compound)
T/C [1]: 48 % of control | T/C [2]: 54 % of control | T/C [3]: 66 % of control | T/C (dose: 1200.0 mg/kg/injection, schedule: Q04DX004 (sc), vehicle: Klucel (hydroxypropylcellulose) (HPC)): 110 % of control

C/C=C/c1cc2c(c(=O)o1)C(=O)[C@@H](O)[C@H](C)O2
T/C [4]: 107 % of control | T/C [5]: 79 % of control

CN1c2c(nc(N)[nH]c2=O)NCC1CCNc1ccc(C(=O)NC(CCC(=O)O)C(=O)O)cc1 (stereo not drawn)
T/C (dose: 400.0 mg/kg/injection, schedule: Q01DX010 (sc), vehicle: saline): 33 % of control | T/C (dose: 800.0 mg/kg/injection, schedule: Q01DX010 (sc), vehicle: saline): 51 % of control

CC(C)(C)c1ccc(CN2CCN(C(c3ccccc3)c3ccc(Cl)cc3)CC2)cc1 (stereo not drawn)
T/C (dose: 75.0 mg/kg/injection, schedule: Q04DX004 (sc), vehicle: Klucel (hydroxypropylcellulose) (HPC)): 78 % of control | T/C [1]: 74 % of control | T/C [2]: 88 % of control | T/C [3]: 93 % of control

COc1ccc(/C=C/C(=O)c2cc(C(=O)O)c(OC)cc2OC)cc1OC
T/C (dose: 225.0 mg/kg/injection, schedule: Q04DX004 (sc), vehicle: suspension in saline): 82 % of control | T/C (dose: 450.0 mg/kg/injection, schedule: Q04DX004 (sc), vehicle: suspension in saline): 102 % of control | T/C (dose: 900.0 mg/kg/injection, schedule: Q04DX004 (sc), vehicle: suspension in saline): 88 % of control

CCCCCCCCCCCC(=O)NC1CC(O[C@H]2C[C@](O)(C(=O)CO)Cc3c(O)c4c(c(O)c32)C(=O)c2c(OC)cccc2C4=O)OC(C)C1O (stereo partly drawn)
T/C (dose: 100.0 mg/kg/injection, schedule: Q01DX010 (sc), vehicle: water): 105 % of control | T/C (dose: 200.0 mg/kg/injection, schedule: Q01DX010 (sc), vehicle: water): 68 % of control | T/C (dose: 400.0 mg/kg/injection, schedule: Q01DX010 (sc), vehicle: water): 26 % of control

Nc1nncs1
T/C (dose: 3.13 mg/kg/injection, schedule: Q01DX010 (sc), vehicle: saline): 97 % of control | T/C (dose: 12.5 mg/kg/injection, schedule: Q01DX010 (sc), vehicle: saline): 84 % of control

COc1cc2cc(c1Cl)N(C)C(=O)CC(OC(=O)C(C)C)C1(C)OC1C(C)C1CC(O)(NC(=O)O1)C(OC)/C=C/C=C(C)C2 (stereo not drawn)
T/C (dose: 12.5 micrograms/kg/injection, schedule: Q04DX004 (sc), vehicle: saline + alcohol): 74 % of control | T/C (dose: 25.0 micrograms/kg/injection, schedule: Q04DX004 (sc), vehicle: saline + alcohol): 155 % of control | T/C (dose: 50.0 micrograms/kg/injection, schedule: Q04DX004 (sc), vehicle: saline + alcohol): 165 % of control | T/C (dose: 100.0 micrograms/kg/injection, schedule: Q04DX004 (sc), vehicle: saline + alcohol): 31 % of control | T/C (dose: 500.0 micrograms/kg/injection, schedule: Q04DX004 (sc), vehicle: saline + alcohol): 5 % of control

CCOC(=O)C(CC(C)C)NC(=O)C(N)Cc1ccc(N(CCCl)CCCl)cc1 (stereo not drawn)
T/C [6]: 81 % of control | T/C [7]: 105 % of control and 118 % of control | T/C [8]: 82 % of control and 86 % of control | T/C (dose: 60.0 mg/kg/injection, schedule: Q04DX004 (sc), vehicle: water): 7 % of control

Nc1cccc(=O)[nH]1
T/C (dose: 300.0 mg/kg/injection, schedule: Q04DX004 (sc), vehicle: saline): 115 % of control | T/C (dose: 600.0 mg/kg/injection, schedule: Q04DX004 (sc), vehicle: saline): 96 % of control | T/C (dose: 1200.0 mg/kg/injection, schedule: Q04DX004 (sc), vehicle: saline): 87 % of control | T/C (dose: 2400.0 mg/kg/injection, schedule: Q04DX004 (sc), vehicle: saline): 79 % of control

CCCCCCCCCCCCCCCCCC(=O)OCC(=O)OCC(=O)[C@]1(O)Cc2c(O)c3c(c(O)c2[C@@H](OC2CC(N)C(O)C(C)O2)C1)C(=O)c1c(OC)cccc1C3=O (stereo partly drawn)
T/C (dose: 3.0 mg/kg/injection, schedule: Q01DX010 (sc), vehicle: water): 56 % of control | T/C (dose: 6.0 mg/kg/injection, schedule: Q01DX010 (sc), vehicle: water): 47 % of control | T/C [6]: 86 % of control | T/C (dose: 12.0 mg/kg/injection, schedule: Q01DX010 (sc), vehicle: water): 59 % of control | T/C [7]: 96 % of control | T/C [8]: 38 % of control

O=C(O)C(CSC(c1ccccc1)(c1ccccc1)c1ccccc1)N=Cc1cccs1 (stereo not drawn)
T/C (dose: 200.0 mg/kg/injection, schedule: Q04DX004 (sc), vehicle: suspension in saline): 12 % of control

CC1(c2ccc(Cl)cc2)OC(=O)C(=Cc2ccc([N+](=O)[O-])s2)C(=O)O1 (stereo not drawn)
T/C [4]: 34 % of control | T/C (dose: 100.0 mg/kg/injection, schedule: Q04DX004 (sc), vehicle: saline with Tween-80): 53 % of control | T/C [5]: 77 % of control | T/C (dose: 400.0 mg/kg/injection, schedule: Q04DX004 (sc), vehicle: saline with Tween-80): 60 % of control

O=P1(N(CCCl)CCCl)NCCCO1 (stereo not drawn)
T/C (dose: 40.0 mg/kg/injection, schedule: Q04DX004 (ip), vehicle: saline): 75 % of control | T/C (dose: 50.0 mg/kg/injection, schedule: Q01DX010 (sc), vehicle: saline): 58 % of control | T/C (dose: 60.0 mg/kg/injection, schedule: Q04DX004 (ip), vehicle: saline): 53 % of control | T/C (dose: 90.0 mg/kg/injection, schedule: Q04DX004 (ip), vehicle: saline): 26 % of control
